What is called IC50 is the midpoint of a concentration-inhibition curve. Low values mean inhibition by little substance, high ones a need for much substance.

The experiment deals with THP-1 ASC-GFP cells. Description: THP-1 ASC-GFP speck assay (NLRP3 inflammasome activation, nigericin). It is filed as cell-based. As to conditions: THP1-ASC-GFP; PMA-differentiated, LPS primed, 10 μM nigericin. As to the method: THP-1 ASC-GFP cell line was purchased from Invivogen, San Diego, for infammasome activation assay. THP-1 ASC-GFP cells stably express a 37.6 kDa ASC::GFP fusion protein that enables monitoring of spec formation by microscopy after activation of NLRP3 dependent inflammasome pathway. Cells were maintained at a density of 600,000 cells/mL in growth media consisting of RPMI 1640, 2 mM L-glutamine, 25 mM HEPES and 10% heat inactivated fetal bovine serum at 37° C. and 5% CO2. Cells were passaged every 3-4 days and used for assays for up to 20 passages.
THP-1 ASC-GFP cells were collected by centrifuging cells at 800 RPM for 5 minutes. Cell culture supernatant was removed and cells were re-suspended in fresh media at density of 1×10^6 cells/mL in assay media consisting of RPMI 1640, 2 mM L-glutamine, 25 mM HEPES and 10% heat inactivated fetal bovine serum. Phorbol 12-myristate 13-acetate (PMA) (Invivogen,tlrl-pma) was added to the cell suspension at a final concentration of 500 ng/ml and mixed thoroughly. 40,000 cells were added per well of a 384 well plate and differentiated into macrophages overnight at 37° C. and 5% CO2. Cells were primed with 1 μg/mL of lipopolysaccharide (Invivogen Ultrapure lipopolysaccharide from E. coli, tlrl-3pelps) in assay media for 3 hours at 37° C. and 5% CO2. After priming, media was removed and THP-1 ASC-GFP cells were preincubated with serially diluted test compounds with starting concentration of 40 μM followed by 2-fold dilution for a 20-point curve or vehicle (DMSO) for 30 min in assay media at 37° C. and 5% CO2. Cells were then stimulated with 10 μM nigericin (Invivogen, tlrl-nig-5) for 90 min at 37° C. and 5% CO2 to activate NLRP3 dependent inflammasome pathway and spec formation. After stimulation, cells were fixed with 4.8% paraformaldehyde (Electron Microscopy Sciences #15710-S) and incubated at room temperature for 15 min. Cells were then washed 3-times with 100 μL of phosphate buffered saline and permeabilized in the presence of premeablization/block buffer for 20 min at room temperature. Cells were then washed 3-times with 100 μL phosphate buffered saline and incubated for 1 hr at room temperature in the presence of hoechst. After staining with Hoechst, cells were washed 3-times with 100 μL phosphate buffered saline and imaged for ASC spec formation.
THP-1 ASC-GFP cells were imaged in 488 and Hoechst channels. Hoechst channel was used for cell count and 488 channel was used to identify number of GFP ASC specks in imaged fields. Percentage of cells with a spec was calculated by dividing the number of GFP positive spots by total number of cells.

On to `CC(C)c1nn(CC(F)F)c(C(C)C)c1NC(=O)NS(=O)(=O)c1cnn2c1OCC(C)(C)C2` [Example 57, N-((1-(2,2-difluoroethyl)-3,5-diisopropyl-1H-pyrazol-4-yl)carbamoyl)-6,6-dimethyl-6,7-dihydro-5H-pyrazolo[5,1-b][1,3]oxazine-3-sulfonamide, ammonia], for which half-maximal inhibition (IC50) was put at 0.56 µM. The figure for `CC(C)c1cc(C(F)(F)F)nc(C(C)C)c1NC(=O)NS(=O)(=O)c1cnn2c1OCC(C)(C)C2` [Example 82, N-((2,4-diisopropyl-6-(trifluoromethyl)pyridin-3-yl)carbamoyl)-6,6-dimethyl-6,7-dihydro-5H-pyrazolo[5,1-b][1,3]oxazine-3-sulfonamide] is 1.4 µM; for `CO[C@@H]1COc2c(S(=O)(=O)NC(=O)Nc3c(C(C)C)nn(C(F)(F)F)c3C(C)C)cnn2C1` [Example 78a, (S)—N-((3,5-diisopropyl-1-(trifluoromethyl)-1H-pyrazol-4-yl)carbamoyl)-6-methoxy-6,7-dihydro-5H-pyrazolo[5,1-b][1,3]oxazine-3-sulfonamide] it is 0.071 µM; for `CO[C@@H]1COc2c(S(=O)(=O)NC(=O)Nc3c(C(C)C)cc(C(F)(F)F)nc3C(C)C)cnn2C1` [Example 80a, (S)—N-((2,4-diisopropyl-6-(trifluoromethyl)pyridin-3-yl)carbamoyl)-6-methoxy-6,7-dihydro-5H-pyrazolo[5,1-b][1,3]oxazine-3-sulfonamide, ammonia] it is 0.15 µM. The figure for `CCn1nc(C(C)C)c(NC(=O)NS(=O)(=O)c2cnn3c2OCC(C)(C)C3)c1C(C)C` [Example 65, N-((1-ethyl-3,5-diisopropyl-1H-pyrazol-4-yl)carbamoyl)-6,6-dimethyl-6,7-dihydro-5H-pyrazolo[5,1-b][1,3]oxazine-3-sulfonamide, ammonia] is 1.4 µM; for `CO[C@@H]1COc2c(S(=O)(=O)NC(=O)Nc3c(C(C)C)nn(CC(F)F)c3C(C)C)cnn2C1` [Example 62a, (S)—N-((1-(2,2-difluoroethyl)-3,5-diisopropyl-1H-pyrazol-4-yl)carbamoyl)-6-methoxy-6,7-dihydro-5H-pyrazolo[5,1-b][1,3]oxazine-3-sulfonamide, ammonia] it is 0.64 µM. In the case of `CC(C)c1nn(C(F)(F)F)c(C(C)C)c1NC(=O)NS(=O)(=O)c1cnn2c1OCC(C)(C)C2` [Example 79, N-((3,5-diisopropyl-1-(trifluoromethyl)-1H-pyrazol-4-yl)carbamoyl)-6,6-dimethyl-6,7-dihydro-5H-pyrazolo[5,1-b][1,3]oxazine-3-sulfonamide] it was 0.74 µM; in that of `CC(C)c1cc(C(F)(F)F)nc(C(C)C)c1NC(=O)NS(=O)(=O)c1cnn2c1OC[C@@H](N(C)C)C2` [Example 76a, (S)—N-((2,4-diisopropyl-6-(trifluoromethyl)pyridin-3-yl)carbamoyl)-6-(dimethylamino)-6,7-dihydro-5H-pyrazolo[5,1-b][1,3]oxazine-3-sulfonamide], 0.56 µM. As for `CC(C)c1nn(C)c(C(C)C)c1NC(=O)NS(=O)(=O)c1cnn2c1OCC(C)(C)C2` [Example 68, N-((3,5-diisopropyl-1-methyl-1H-pyrazol-4-yl)carbamoyl)-6,6-dimethyl-6,7-dihydro-5H-pyrazolo[5,1-b][1,3]oxazine-3-sulfonamide, ammonia], it took 1.5 µM to reach half-maximal inhibition (IC50). In the case of `CC(C)c1nn(C(F)(F)F)c(C(C)C)c1NC(=O)NS(=O)(=O)c1cnn2c1OCCC2` [Example 67, N-((3,5-diisopropyl-1-(trifluoromethyl)-1H-pyrazol-4-yl)carbamoyl)-6,7-dihydro-5H-pyrazolo[5,1-b][1,3]oxazine-3-sulfonamide, ammonia] it was 0.17 µM; in that of `CC(C)c1cc(OC(F)(F)F)nc(C(C)C)c1NC(=O)NS(=O)(=O)c1cnn2c1OCCC2` [Example 71, Sodium N-((2,4-diisopropyl-6-(trifluoromethoxy)pyridin-3-yl)carbamoyl)-6,7-dihydro-5H-pyrazolo[5,1-b][1,3]oxazine-3-sulfonamide], 1.9 µM.

The values above are taken from patent US11560391B2, “Sulfonylurea compounds as inhibitors of interleukin-1 activity” (Genentech, Inc., priority 2018, dated 2023).
